Numbers after ± are expanded uncertainties.
Assay: xn = mol fraction of the nth substance listed
Conditions: 100 kPa, Liquid; for viscosity: Concentric cylinders viscometry; for mass density: Vibrating tube method

CCCCCCn1cc[n+](C)c1.O=[N+]([O-])[O-] [1-hexyl-3-methylimidazolium nitrate] + CCCCCCCO
Conditions | mass density [kg/m3] | viscosity [mPa·s]
293.15 K, x1 = 0.0812 | 857.5 ± 1.3 | 12.74 ± 1.1
293.15 K, x1 = 0.1608 | 889.6 ± 1.3 | 22.91 ± 1.9
293.15 K, x1 = 0.2395 | 919 ± 1.2 | 36.98 ± 3
293.15 K, x1 = 0.3493 | 956.7 ± 1.2 | 67.76 ± 5.5
293.15 K, x1 = 0.4392 | 985 ± 1.2 | 100.46 ± 8.2
293.15 K, x1 = 0.5749 | 1023.9 ± 1.2 | 177.42 ± 15
293.15 K, x1 = 0.6491 | 1043.4 ± 1.2 | 234.42 ± 19
293.15 K, x1 = 0.7398 | 1065.6 ± 1.3 | 338.84 ± 29
293.15 K, x1 = 0.8496 | 1090.2 ± 1.3 | 508.16 ± 44
293.15 K, x1 = 0.9381 | 1108.4 ± 1.4 | 677.64 ± 59
293.15 K, x1 = 1 | 1120.3 ± 1.4 | 804.17 ± 70
298.15 K, x1 = 0.0812 | 853.9 ± 1.3 | 10.09 ± 0.82
298.15 K, x1 = 0.1608 | 885.9 ± 1.3 | 16.67 ± 1.4
298.15 K, x1 = 0.2395 | 915.3 ± 1.2 | 25.12 ± 2
298.15 K, x1 = 0.3493 | 953.1 ± 1.2 | 41.88 ± 3.4
298.15 K, x1 = 0.4392 | 981.5 ± 1.2 | 61.38 ± 5
298.15 K, x1 = 0.5749 | 1020.5 ± 1.2 | 109.9 ± 8.9
298.15 K, x1 = 0.6491 | 1040 ± 1.2 | 150.66 ± 12
298.15 K, x1 = 0.7398 | 1062.2 ± 1.3 | 219.28 ± 18
298.15 K, x1 = 0.8496 | 1087.1 ± 1.3 | 334.2 ± 28
298.15 K, x1 = 0.9381 | 1105.4 ± 1.4 | 460.97 ± 39
298.15 K, x1 = 1 | 1117.5 ± 1.4 | 545.25 ± 47
303.15 K, x1 = 0.0812 | 850.3 ± 1.3 | 7.94 ± 0.64
303.15 K, x1 = 0.1608 | 882.2 ± 1.3 | 12.19 ± 0.99
303.15 K, x1 = 0.2395 | 911.5 ± 1.2 | 17.82 ± 1.4
303.15 K, x1 = 0.3493 | 949.3 ± 1.2 | 28.31 ± 2.3
303.15 K, x1 = 0.4392 | 977.7 ± 1.2 | 40.09 ± 3.2
303.15 K, x1 = 0.5749 | 1016.8 ± 1.2 | 69.18 ± 5.6
303.15 K, x1 = 0.6491 | 1036.3 ± 1.2 | 94.19 ± 7.6
303.15 K, x1 = 0.7398 | 1058.6 ± 1.2 | 136.14 ± 11
303.15 K, x1 = 0.8496 | 1083.5 ± 1.3 | 213.3 ± 18
303.15 K, x1 = 0.9381 | 1102.1 ± 1.4 | 303.7 ± 25
303.15 K, x1 = 1 | 1114.3 ± 1.4 | 369.14 ± 31
308.15 K, x1 = 0.0812 | 846.5 ± 1.3 | 6.64 ± 0.54
308.15 K, x1 = 0.1608 | 878.3 ± 1.3 | 9.57 ± 0.77
308.15 K, x1 = 0.2395 | 907.7 ± 1.2 | 13.27 ± 1.1
308.15 K, x1 = 0.3493 | 945.5 ± 1.2 | 19.95 ± 1.6
308.15 K, x1 = 0.4392 | 973.9 ± 1.2 | 27.99 ± 2.3
308.15 K, x1 = 0.5749 | 1013 ± 1.2 | 46.34 ± 3.7
308.15 K, x1 = 0.6491 | 1032.6 ± 1.2 | 61.8 ± 5
308.15 K, x1 = 0.7398 | 1054.9 ± 1.2 | 91.83 ± 7.5
308.15 K, x1 = 0.8496 | 1080 ± 1.3 | 147.57 ± 12
308.15 K, x1 = 0.9381 | 1098.7 ± 1.4 | 206.54 ± 17
308.15 K, x1 = 1 | 1111.1 ± 1.4 | 257.59 ± 21
313.15 K, x1 = 0.0812 | 842.8 ± 1.3 | 5.43 ± 0.44
313.15 K, x1 = 0.1608 | 874.6 ± 1.3 | 7.36 ± 0.59
313.15 K, x1 = 0.2395 | 903.9 ± 1.2 | 9.99 ± 0.8
313.15 K, x1 = 0.3493 | 941.7 ± 1.2 | 14.27 ± 1.1
313.15 K, x1 = 0.4392 | 970.1 ± 1.2 | 19.02 ± 1.5
313.15 K, x1 = 0.5749 | 1009.3 ± 1.2 | 31.62 ± 2.6
313.15 K, x1 = 0.6491 | 1028.9 ± 1.2 | 42.17 ± 3.4
313.15 K, x1 = 0.7398 | 1051.3 ± 1.2 | 62.32 ± 5
313.15 K, x1 = 0.8496 | 1076.5 ± 1.3 | 101.4 ± 8.3
313.15 K, x1 = 0.9381 | 1095.3 ± 1.4 | 142.89 ± 12
313.15 K, x1 = 1 | 1107.8 ± 1.4 | 185.67 ± 15
318.15 K, x1 = 0.0812 | 839.1 ± 1.3 | 4.59 ± 0.37
318.15 K, x1 = 0.1608 | 870.8 ± 1.3 | 6.17 ± 0.5
318.15 K, x1 = 0.2395 | 900.2 ± 1.2 | 7.85 ± 0.63
318.15 K, x1 = 0.3493 | 937.9 ± 1.2 | 10.99 ± 0.88
318.15 K, x1 = 0.4392 | 966.4 ± 1.2 | 14.45 ± 1.2
318.15 K, x1 = 0.5749 | 1005.6 ± 1.2 | 22.7 ± 1.8
318.15 K, x1 = 0.6491 | 1025.4 ± 1.2 | 30.06 ± 2.4
318.15 K, x1 = 0.7398 | 1047.9 ± 1.2 | 43.55 ± 3.5
318.15 K, x1 = 0.8496 | 1073.1 ± 1.3 | 71.58 ± 5.8
318.15 K, x1 = 0.9381 | 1092.1 ± 1.4 | 106.41 ± 8.7
318.15 K, x1 = 1 | 1104.7 ± 1.4 | 140.18 ± 11
323.15 K, x1 = 0.0812 | 835.3 ± 1.3 | 3.84 ± 0.31
323.15 K, x1 = 0.1608 | 867 ± 1.3 | 5.01 ± 0.4
323.15 K, x1 = 0.2395 | 896.4 ± 1.2 | 6.43 ± 0.52
323.15 K, x1 = 0.3493 | 934.2 ± 1.2 | 8.89 ± 0.72
323.15 K, x1 = 0.4392 | 962.6 ± 1.2 | 11.59 ± 0.93
323.15 K, x1 = 0.5749 | 1001.9 ± 1.2 | 17.99 ± 1.4
323.15 K, x1 = 0.6491 | 1021.8 ± 1.2 | 23.44 ± 1.9
323.15 K, x1 = 0.7398 | 1044.4 ± 1.2 | 34.2 ± 2.8
323.15 K, x1 = 0.8496 | 1069.8 ± 1.3 | 54.87 ± 4.4
323.15 K, x1 = 0.9381 | 1088.9 ± 1.4 | 82.79 ± 6.7
323.15 K, x1 = 1 | 1101.6 ± 1.4 | 110.94 ± 9
